Test system: P12-Ichikawa
Assay: cell viability relative to DMSO control; higher = less cytotoxic
Conditions: 48 h
Summary of the method: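 Three leukemia lines were tested: NOMO1 and SEM at 500 cells/well and P12-Ichikawa at 1000 cells/well. Each was adapted for at least four passages in each medium and seeded in 5 μl in 1536-well plates, and library compounds in DMSO were pin-dosed from 47 μM to 0.79 nM in 11 threefold steps. After 48 h at 37°C, CellTiter-Glo One luminescence was read. Viability is a percentage relative to DMSO wells on each plate, with cell-free wells as background.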

[1] = HPLM + 10% dialyzed FBS, 0.000781 µM
[2] = HPLM + 10% dialyzed FBS, 0.00234 µM
[3] = HPLM + 10% dialyzed FBS, 0.00702 µM
[4] = HPLM + 10% dialyzed FBS, 0.0211 µM
[5] = HPLM + 10% dialyzed FBS, 0.0632 µM
[6] = HPLM + 10% dialyzed FBS, 0.19 µM
[7] = HPLM + 10% dialyzed FBS, 0.569 µM
[8] = HPLM + 10% dialyzed FBS, 1.71 µM
[9] = HPLM + 10% dialyzed FBS, 5.12 µM
[10] = HPLM + 10% dialyzed FBS, 15.4 µM
[11] = HPLM + 10% dialyzed FBS, 46.1 µM
[12] = RPMI 5 mM glucose + 10% FBS, 0.000781 µM
[13] = RPMI 5 mM glucose + 10% FBS, 0.00234 µM
[14] = RPMI 5 mM glucose + 10% FBS, 0.00702 µM
[15] = RPMI 5 mM glucose + 10% FBS, 0.0211 µM
[16] = RPMI 5 mM glucose + 10% FBS, 0.0632 µM
[17] = RPMI 5 mM glucose + 10% FBS, 0.19 µM
[18] = RPMI 5 mM glucose + 10% FBS, 0.569 µM
[19] = RPMI 5 mM glucose + 10% FBS, 1.71 µM
[20] = RPMI 5 mM glucose + 10% FBS, 5.12 µM
[21] = RPMI 5 mM glucose + 10% FBS, 15.4 µM
[22] = RPMI 5 mM glucose + 10% FBS, 46.1 µM
[23] = RPMI 5 mM glucose + 10% dialyzed FBS, 0.000781 µM
[24] = RPMI 5 mM glucose + 10% dialyzed FBS, 0.00234 µM
[25] = RPMI 5 mM glucose + 10% dialyzed FBS, 0.00702 µM
[26] = RPMI 5 mM glucose + 10% dialyzed FBS, 0.0211 µM
[27] = RPMI 5 mM glucose + 10% dialyzed FBS, 0.0632 µM
[28] = RPMI 5 mM glucose + 10% dialyzed FBS, 0.19 µM
[29] = RPMI 5 mM glucose + 10% dialyzed FBS, 0.569 µM
[30] = RPMI 5 mM glucose + 10% dialyzed FBS, 1.71 µM
[31] = RPMI 5 mM glucose + 10% dialyzed FBS, 5.12 µM
[32] = RPMI 5 mM glucose + 10% dialyzed FBS, 15.4 µM
[33] = RPMI 5 mM glucose + 10% dialyzed FBS, 46.1 µM

Structure (SMILES)	cell viability [1] [%]	cell viability [2] [%]	cell viability [3] [%]	cell viability [4] [%]	cell viability [5] [%]	cell viability [6] [%]	cell viability [7] [%]	cell viability [8] [%]	cell viability [9] [%]	cell viability [10] [%]	cell viability [11] [%]	cell viability [12] [%]	cell viability [13] [%]	cell viability [14] [%]	cell viability [15] [%]	cell viability [16] [%]	cell viability [17] [%]	cell viability [18] [%]	cell viability [19] [%]	cell viability [20] [%]	cell viability [21] [%]	cell viability [22] [%]	cell viability [23] [%]	cell viability [24] [%]	cell viability [25] [%]	cell viability [26] [%]	cell viability [27] [%]	cell viability [28] [%]	cell viability [29] [%]	cell viability [30] [%]	cell viability [31] [%]	cell viability [32] [%]	cell viability [33] [%]
CC(C)(S)[C@@H](N)C(=O)O	108	112	115	120	106	120	113	122	117	115	108	100	109	114	121	96.1	112	118	121	115	125	99.5	104	110	103	115	98	109	107	112	114	111	95.8
COC(=O)Nc1nc2cc(C(=O)c3ccc(F)cc3)ccc2[nH]1	106	106	100	106	101	104	78.2	42.1	23	60.6	40.8	97	99.2	101	99.1	95.2	92.7	81.8	47.2	26.6	74.2	50	95.5	94.6	92.9	96.4	103	91.1	82	49.3	33.9	73.9	76.7
O=C(Nc1c[nH]nc1-c1nc2cc(CN3CCOCC3)ccc2[nH]1)NC1CC1	93.4	101	101	97.6	53.8	12.7	23.9	38.5	51.6	36.5	19.3	97	103	101	99.8	59	16	38	47.3	45.1	38.6	14.1	99	98.6	91.5	102	65.2	24.8	45.8	58.5	60.2	46.5	14.2
O=C(CCCCCCC(=O)Nc1cccnc1)NO	93	99.9	96.9	96.9	105	109	99.5	90.8	82.1	12.2	4.36	82.5	95.6	93.7	93.4	97.5	95.4	99.6	85.7	76.1	9.59	3.79	86.9	92.8	90.7	91.9	94.7	95.1	94.3	85.2	73.9	10	3.83
CCOC(=O)C(C#N)C\1C2=CC(=CC=C2O\C(=C1C(=O)OCC)N)Br (stereo unspecified)	100	103	108	92.8	103	103	99.1	104	105	94.6	75.7	104	102	106	88.5	106	117	103	102	97.9	90	89.4	101	99.1	105	83.9	94.9	105	102	92.7	101	95	80
O=C(NCCCCN1CCOCC1)c1cc2ccccc2o1	119	122	119	115	114	120	113	117	112	112	102	115	122	120	118	106	116	107	105	101	95.5	101	123	128	123	131	118	120	115	108	116	110	108
CC[N+](CC)(CC)CCOc1cccc(OCC[N+](CC)(CC)CC)c1OCC[N+](CC)(CC)CC	116	109	101	107	127	120	98.9	91.6	100	107	97	124	115	112	124	114	115	107	108	111	110	103	108	101	108	109	120	109	100	104	103	95.2	100

Reference: the supplement of paper PMC11451515
